Measured values reported in the supplement of paper PMC10307832.

Experiments:
Test in all cases: relative viability (nuclei count vs DMSO), 5 days (fraction); higher = more cells survive
[1] = compound: CS(=O)(=O)c1ccc(C(=O)Nc2ccc(Cl)c(-c3ccccn3)c2)c(Cl)c1 [Vismodegib] + CS(=O)(=O)N1CCN(Cc2cc3nc(-c4cccc5[nH]ncc45)nc(N4CCOCC4)c3s2)CC1 [Pictilisib] (partner 1 µM)
Summary of the method: (§1)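 Relative viability divides the nuclei count in treated wells by that in vehicle wells. Lung cancer cell lines were seeded in 1536-well plates, dosed by pin tool the next day, and fixed and stained after 5 days in one step with final 0.05% Triton X-100, 1% formaldehyde and 1 ug/ml Hoechst. Dosing was a single drug or a fixed anchor-drug dose plus five library-drug doses (not always all listed) in √10 steps, and values are medians of duplicate plates imaged at 4×.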

[2] = compound: N#CC[C@H](C1CCCC1)n1cc(-c2ncnc3[nH]ccc23)cn1 [Ruxolitinib] + CC(=O)Nc1cccc(-n2c(=O)n(C3CC3)c(=O)c3c(Nc4ccc(I)cc4F)n(C)c(=O)c(C)c32)c1 [Trametinib] (partner 0.02 µM)
Summary of the method: as §1

[3] = compound: CS(=O)(=O)c1ccc(-c2cnc(N)c(C(=O)Nc3ccccc3)n2)cc1 [VE-821] + O=C(c1cc(Cc2n[nH]c(=O)c3ccccc23)ccc1F)N1CCN(C(=O)C2CC2)CC1 [Olaparib] (partner 8 µM)
Summary of the method: as §1

[4] = compound: CS(=O)(=O)c1ccc(C(=O)Nc2ccc(Cl)c(-c3ccccn3)c2)c(Cl)c1 [Vismodegib] + Nc1nc2[nH]cc(CCc3ccc(C(=O)N[C@@H](CCC(=O)O)C(=O)O)cc3)c2c(=O)[nH]1 [Pemetrexed] (partner 0.2 µM)
Summary of the method: as §1

Cell Line	relative viability ([1]; first compound 0.08 µM)	relative viability ([1]; first compound 0.253 µM)	relative viability ([1]; first compound 0.8 µM)	relative viability ([1]; first compound 2.53 µM)	relative viability ([1]; first compound 8 µM)	relative viability ([2]; first compound 0.08 µM)	relative viability ([2]; first compound 0.253 µM)	relative viability ([2]; first compound 0.8 µM)	relative viability ([2]; first compound 2.53 µM)	relative viability ([2]; first compound 8 µM)	relative viability ([3]; first compound 0.08 µM)	relative viability ([3]; first compound 0.253 µM)	relative viability ([3]; first compound 0.8 µM)	relative viability ([3]; first compound 2.53 µM)	relative viability ([3]; first compound 8 µM)	relative viability ([4]; first compound 0.08 µM)	relative viability ([4]; first compound 0.253 µM)	relative viability ([4]; first compound 0.8 µM)	relative viability ([4]; first compound 2.53 µM)	relative viability ([4]; first compound 8 µM)
NCI-H1666	0.341	0.41	0.42	0.434	0.537	0.834	0.87	0.871	0.76	0.881	0.758	0.742	0.839	0.944	0.79	0.852	0.912	0.836	0.843	0.925
EPLC-272H	0.319	0.382	0.308	0.317	0.293	0.322	0.334	0.41	0.286	0.337	0.949	0.829	0.504	0.608	0.255	0.285	0.418	0.324	0.317	0.33
NCI-H838	0.389	0.408	0.415	0.489	0.504	0.554	0.44	0.477	0.217	0.185	0.866	0.856	0.765	0.638	0.365	0.226	0.247	0.241	0.23	0.262
NCI-H2087	0.673	0.702	0.843	0.874	0.732	0.173		0.22	0.263	0.27	0.784	0.64	0.67	0.583	0.462	0.692	0.657	0.651	0.643	0.657
LC-2-ad	0.49	0.503	0.513	0.643	0.421	0.879	0.896	0.878	0.663	0.577	0.714	0.709	0.725	0.592	0.519	0.269	0.271	0.278	0.276	0.26
NCI-H2405		0.441	0.373	0.341	0.531	0.674	0.66	0.725	0.428	0.398	0.937	0.828	0.846	0.997	0.805	1.13	1.03	1.03	1.01	1.01
HCC-366	0.16	0.17	0.148	0.137	0.131	0.33	0.319	0.432	0.239	0.231	0.654	0.342	0.19	0.0816	0.0499	0.164	0.17	0.186	0.166	0.158
NCI-H3122	0.548	0.599	0.553	0.696	0.565	0.232	0.192	0.21	0.167	0.227	0.622	0.495	0.432	0.378	0.221	0.201	0.199	0.228	0.184	0.19
LU99A	0.319	0.39	0.256	0.313	0.324	0.5	0.543	0.594	0.232	0.428	0.245	0.228	0.176	0.143	0.122	0.187	0.164	0.246	0.163	0.176
NCI-H1650	0.557	0.587	0.558	0.529	0.639	0.331	0.597	0.628	0.27	0.541	0.686	0.83	0.542	0.796	0.429	0.332	0.333	0.334	0.372	0.354
EMC-BAC-2	0.541	0.516	0.588	0.529	0.461	0.886	0.806	1.08	0.768	0.948	0.606	0.495	0.559	0.46	0.383	0.469	0.442	0.423	0.461	0.518
HCC-78	0.19	0.189	0.176	0.206	0.234	0.679	0.7	0.609	0.45	0.517	0.8	0.931	0.772	0.946	0.736	0.907	0.951	0.961	0.785	0.891
NCI-H1734	0.429	0.446	0.429	0.469	0.512	0.66	0.647	0.635	0.462	0.607	0.708	0.673	0.558	0.498	0.303	0.433	0.399	0.433	0.429	0.414
